Source: PubChem BioAssay (NCI)
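Tested at 5 concentrations; 48 h exposure; 96-well plates; endpoints linearly interpolated, else capped at highest concentration. Abbreviation: GI50, concentration required for 50% inhibition of growth. At the TGI there is no net growth.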

How the values were obtained:
Test in all cases: inhibition of tumour cell growth, NCI panel, 48 h
[1] = test system: T-47D breast
[2] = test system: DU-145 prostate
[3] = test system: OVCAR-4 ovarian
[4] = test system: 786-0 renal
[5] = test system: HOP-62 NSCLC
[6] = test system: MDA-MB-231 breast
[7] = test system: OVCAR-3 ovarian
[8] = test system: MALME-3M melanoma
[9] = test system: HS 578T breast
[10] = test system: UO-31 renal

O=C(C#Cc1ccccc1)N1CCCCC1
TGI [1]: > 100 µM | TGI [2]: > 100 µM | TGI [3]: > 100 µM | TGI [4]: > 100 µM | TGI [5]: > 100 µM | TGI [6]: > 100 µM | TGI [7]: > 100 µM | TGI [8]: > 100 µM | TGI [9]: > 100 µM

CCCCCCCN(CCCCCCC)C(=N)c1ccc(OC)c2ccccc12
GI50 [1]: 1.56 µM | TGI [1]: 3.33 µM | GI50 [2]: 1.38 µM | TGI [2]: 2.76 µM | GI50 [3]: 1.36 µM | TGI [3]: 3.02 µM | GI50 [4]: 1.31 µM | TGI [4]: 2.95 µM | GI50 [10]: 0.971 µM | TGI [10]: 2.36 µM | GI50 [5]: 1.3 µM | TGI [5]: 2.79 µM | GI50 [7]: 1.6 µM | TGI [7]: 3.17 µM | GI50 [9]: 1.56 µM | TGI [9]: 3.53 µM

c1ccc2c(c1)CCCc1nnc3nc4ccccc4n3c1-2
GI50 [1]: 5.49 µM | TGI [1]: > 100 µM | GI50 [2]: 4.91 µM | TGI [2]: > 100 µM | GI50 [3]: 3.98 µM | TGI [3]: > 100 µM | GI50 [4]: 5.12 µM | TGI [4]: > 100 µM | GI50 [10]: 3.08 µM | TGI [10]: 30.5 µM | GI50 [5]: 4.73 µM | TGI [5]: > 100 µM | GI50 [6]: 4.98 µM | TGI [6]: > 100 µM | GI50 [7]: 4.37 µM | TGI [7]: 37.8 µM | GI50 [9]: 20.5 µM | TGI [9]: > 100 µM

COC1C[C@H](O[C@@H]2C[C@H](O[C@@H]3C[C@H](O[C@@H]4C(=O)c5c(cc6cc(O[C@H]7C[C@@H](O[C@H]8C[C@@H](O)[C@H](O)C(C)O8)[C@H](O)C(C)O7)c(C)c(O)c6c5O)C[C@H]4C(OC)C(=O)[C@@H](O)[C@@H](C)O)OC(C)[C@H]3O)OC(C)[C@@H]2O)OC(C)[C@@H]1O (stereo partly specified)
GI50 [1]: 0.0701 µM | TGI [1]: 7 µM | GI50 [2]: 0.125 µM | TGI [2]: > 32.5 µM | GI50 [3]: 0.134 µM | TGI [3]: 2.76 µM | GI50 [4]: 0.116 µM | TGI [4]: > 32.5 µM | GI50 [10]: 0.294 µM | TGI [10]: 4.76 µM | GI50 [5]: 0.0752 µM | TGI [5]: > 32.5 µM | GI50 [7]: 0.0936 µM | TGI [7]: 0.773 µM | GI50 [8]: 0.0861 µM | TGI [8]: 0.437 µM | GI50 [9]: 0.0743 µM | TGI [9]: 4.96 µM

CN(N=O)N1C(=O)SCC(c2ccccc2)(c2ccccc2)C1=O
TGI [1]: > 100 µM | TGI [2]: > 100 µM | TGI [4]: > 100 µM | TGI [10]: > 100 µM | TGI [5]: > 100 µM | TGI [6]: > 100 µM | TGI [7]: > 100 µM | TGI [8]: > 100 µM | TGI [9]: > 100 µM

Cc1cc(C2CC(O)C(CO)O2)c(Br)cc1Br (stereo unspecified)
GI50 [1]: > 100 µM | TGI [1]: > 100 µM | GI50 [2]: > 100 µM | TGI [2]: > 100 µM | GI50 [4]: > 100 µM | TGI [4]: > 100 µM | GI50 [10]: > 100 µM | TGI [10]: > 100 µM | GI50 [5]: > 100 µM | TGI [5]: > 100 µM | GI50 [6]: 58.5 µM | TGI [6]: > 100 µM | GI50 [7]: > 100 µM | TGI [7]: > 100 µM | GI50 [8]: > 100 µM | TGI [8]: > 100 µM | GI50 [9]: 49.9 µM | TGI [9]: > 100 µM

Cc1ccc2c(c1)n([O-])c(C(F)(F)F)c(C(=O)c1ccco1)[n+]2=O
GI50 [1]: 0.472 µM | TGI [1]: 4.18 µM | GI50 [2]: 0.564 µM | TGI [2]: 1.33 µM | GI50 [3]: 0.627 µM | TGI [3]: 1.89 µM | GI50 [4]: 1.22 µM | TGI [4]: 6.59 µM | GI50 [10]: 0.319 µM | TGI [10]: 1.81 µM | GI50 [5]: 0.996 µM | TGI [5]: 3.85 µM | GI50 [6]: 0.929 µM | TGI [6]: 2.65 µM | GI50 [7]: 0.573 µM | TGI [7]: 1.75 µM | GI50 [9]: 1.2 µM | TGI [9]: 7.73 µM

O=C(Nc1cccc(Cl)c1)Nc1cc(C(F)(F)F)ccc1Cl
GI50 [1]: 3.53 µM | TGI [1]: 31.3 µM | GI50 [2]: 2.95 µM | TGI [2]: 10.2 µM | GI50 [3]: 3.8 µM | TGI [3]: 16.6 µM | GI50 [4]: 2.86 µM | TGI [4]: 12 µM | GI50 [5]: 2.72 µM | TGI [5]: 9.23 µM | GI50 [6]: 1.97 µM | TGI [6]: 4.23 µM | GI50 [7]: 2.61 µM | TGI [7]: 7.19 µM | GI50 [9]: 2.63 µM | TGI [9]: 8.39 µM

c1ccc2cc(Cn3c(-c4cccc5ccccc45)[n+](Cc4ccc5ccccc5c4)c4c5ccccc5c5ccccc5c43)ccc2c1
GI50 [1]: 0.269 µM | TGI [1]: 1.7 µM | GI50 [2]: 0.413 µM | TGI [2]: 1.68 µM | GI50 [3]: 0.324 µM | TGI [3]: 1.41 µM | GI50 [4]: 0.308 µM | TGI [4]: 1.7 µM | GI50 [5]: 0.387 µM | TGI [5]: 2.45 µM | GI50 [8]: 0.285 µM | TGI [8]: 1.45 µM | GI50 [9]: 0.383 µM | TGI [9]: 2.45 µM

CN1c2cccc[c]2[Sn]([CH3])([CH3])[c]2ccccc21
GI50 [2]: < 0.0131 µM | TGI [2]: 0.0988 µM | GI50 [3]: < 0.0121 µM | TGI [3]: 0.232 µM | GI50 [4]: < 0.014 µM | TGI [4]: 0.124 µM | GI50 [10]: 0.0374 µM | TGI [10]: 0.182 µM | GI50 [5]: < 0.0137 µM | TGI [5]: 0.0714 µM | GI50 [6]: < 0.0132 µM | TGI [6]: 0.165 µM | GI50 [7]: < 0.0115 µM | TGI [7]: < 0.0224 µM | GI50 [8]: < 0.0238 µM | TGI [8]: 0.226 µM | GI50 [9]: 0.0166 µM | TGI [9]: 0.683 µM

CCN(CC(O)COc1ccc2c(c1)[n+]([O-])nc(N)[n+]2[O-])C(C)=O (stereo unspecified)
TGI [1]: > 100 µM | TGI [2]: > 100 µM | TGI [3]: > 100 µM | TGI [4]: > 100 µM | TGI [10]: > 100 µM | TGI [5]: > 100 µM | TGI [6]: > 100 µM | TGI [7]: > 100 µM | TGI [9]: > 100 µM

COc1ccc(N2CCN(c3nc(-c4ccccn4)nc4sc5c(c34)CCCCCC5)CC2)cc1
GI50 [1]: 6.31 µM | TGI [1]: > 100 µM | GI50 [2]: 27.9 µM | TGI [2]: > 100 µM | GI50 [3]: 8.58 µM | TGI [3]: > 100 µM | GI50 [4]: 8.45 µM | TGI [4]: > 100 µM | GI50 [10]: 3.28 µM | TGI [10]: > 100 µM | GI50 [5]: 11.4 µM | TGI [5]: > 100 µM | GI50 [6]: 49.6 µM | TGI [6]: > 100 µM | GI50 [7]: 8.61 µM | TGI [7]: > 100 µM | GI50 [9]: 57.6 µM | TGI [9]: > 100 µM
